Here are results for one molecule from patent US11667667B2, “Steroid derivative FXR agonist” (Chia Tai Tianqing Pharmaceutical Group Co., Ltd., priority 2016, dated 2023).

Data set [1] concerns the target T1, Glutathione-S-transferase-labeled FXR human protein (Homo sapiens, UniProt Q96RI1).
T1 construct: purchased Invitrogen
T1 sequence (Q96RI1 1-486): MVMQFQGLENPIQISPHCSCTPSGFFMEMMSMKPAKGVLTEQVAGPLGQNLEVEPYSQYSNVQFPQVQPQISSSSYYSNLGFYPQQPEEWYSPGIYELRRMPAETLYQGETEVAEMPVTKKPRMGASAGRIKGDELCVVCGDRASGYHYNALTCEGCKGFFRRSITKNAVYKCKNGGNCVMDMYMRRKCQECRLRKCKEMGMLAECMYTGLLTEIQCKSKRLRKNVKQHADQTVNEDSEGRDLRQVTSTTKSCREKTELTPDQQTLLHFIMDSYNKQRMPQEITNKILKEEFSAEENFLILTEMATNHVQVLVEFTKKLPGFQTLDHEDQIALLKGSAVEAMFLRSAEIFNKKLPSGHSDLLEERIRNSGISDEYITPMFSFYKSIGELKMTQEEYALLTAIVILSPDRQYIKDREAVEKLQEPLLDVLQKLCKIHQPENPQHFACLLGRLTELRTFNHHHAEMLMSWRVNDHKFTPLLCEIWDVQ
As to the kind of experiment: FXR biochemical experiment (AlphaScreen, coactivator recruitment). The note with it: ratio of highest signal of the compound to that of the reference compound; read-out: FXR enzyme activity Efficacy. As for the experimental part:
FXR Biochemical Experiment Experimental Purpose: The activation effect of the compound on FXR binding reaction was detected by AlphaScreen. […] Protein: Glutathione-S-transferase-labeled FXR human protein (Invitrogen) 2. Co-activator: Biotin-labeled steroid receptor coactivator (Anaspec) 3. […] Compound Dilution: The compound to be tested was prepared as a 40 μM DMSO solution, and then diluted 3-fold to 10 concentration points. The reference compound was prepared as a 400 μM DMSO solution, and then diluted 1.5-fold to 10 concentration points. The diluted DMSO solution was added to the wells of a 384-well plate in a volume of 150 nL per well. 2. […] 4. […] The operation during the experimental process was protected from light. The incubation was performed for 1 hour at room temperature. 5. […] The operation during the experimental process was protected from light. The incubation was performed for 1 hour at room temperature. 6. EC50 test: Envision was used with excitation at 680 nm to read the […] signals at 520-620 nm. 7. Analytical data: The data were analyzed via using Prism 5.0, and the EC50 values of the activation effects of the compounds were calculated.
(Alpha assays give light when donor and acceptor beads are brought close together.)

Data set [2] deals with T2, FXR (FXR HEK 293T DA cell line) (Homo sapiens, UniProt Q96RI1).
T2 construct: expressed in transfected cells; host or cells: HEK 293T (FXR HEK 293T DA)
As to the kind of experiment: FXR cell experiment (β-lactamase reporter gene, GeneBLAzer).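 Also: Emax relative to maximal signal of reference agonist chenodeoxycholic acid (CDCA).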 It is filed as cell-based. The note with it: HEK-293T; read-out: FXR cell activity Efficacy. As for the experimental part: Compound Dilution: The compound to be tested was prepared as a 100 μM DMSO solution, and then the compound was diluted 3-fold to 10 concentration points. The reference compound was prepared as a 100 μM DMSO solution, and then diluted 1.3-fold to 10 concentration points. The diluted DMSO solution was added to the wells of a 384-well plate in a volume of 200 nL per well. 2. […] The 384-well microplate was incubated at 37° C., 5% CO2 for 16 hours. 4. 6 μL of 1 mM LiveBLAzer™-FRET B/G (CCF4-AM) substrate was mixed with 60 μL of B solution and 934 μL of C solution, and added to the wells of the 384-well plate in a volume of 8 μL per well. […] The 384-well microplate was incubated in dark for 2 hours at room temperature. 6. […] 7.
For orientation: Reporter assays use an easily measured gene product as a stand-in for the process of interest.

Data set [3] can be described thus: Pharmacokinetics in mice administrated with single compound. In kind it is in vivo, mice (C57BL/6J). The note with it: mice, oral administration at the same dosage. How it is done:
Pharmacokinetics in Mice Administrated with Single Compound:
12 male mice (C57BL/6J) were randomly divided into two groups, i.e., 6 mice per group. […] Plasma (using K2-EDTA as anticoagulant) samples were taken at 0.083, 0.25, 0.5, 1, 2, 4, 6, 8 and 24 hours in the intravenous administration group after administration; and plasma samples were taken at 0.25, 0.5, 1, 2, 4, 6, 8 and 24 hours in the oral administration group after administration. For 6 animals in each group, blood samples were collected for 3 animals at one time point. The first batch of 3 animals was alternately sampled with the second batch of 3 animals. Plasma sample analysis was performed by using LC-MS/MS. The resultant plasma concentrations were plotted with repect to time, and PK parameters were calculated by using Phoenix WinNonlin 6.3.

T2 sequence (Q96RI1 with tags, fused parts or gaps limits assumed): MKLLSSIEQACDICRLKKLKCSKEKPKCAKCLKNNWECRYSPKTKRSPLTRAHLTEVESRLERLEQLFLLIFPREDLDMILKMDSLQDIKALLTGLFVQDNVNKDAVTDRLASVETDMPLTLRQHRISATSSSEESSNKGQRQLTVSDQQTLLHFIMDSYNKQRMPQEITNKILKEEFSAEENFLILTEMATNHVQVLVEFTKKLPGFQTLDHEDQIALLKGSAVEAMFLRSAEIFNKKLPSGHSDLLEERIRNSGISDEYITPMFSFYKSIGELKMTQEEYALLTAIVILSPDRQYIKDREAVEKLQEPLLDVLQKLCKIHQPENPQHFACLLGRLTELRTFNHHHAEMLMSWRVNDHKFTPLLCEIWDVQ

Take `CC[C@H]1[C@@H](O)[C@@H]2[C@H](CC[C@]3(C)[C@@H]([C@H](C)CCOc4ncc(C(=O)O)cc4Cl)CC[C@@H]23)[C@@]2(C)CC[C@@H](O)C[C@@H]12` [Example 23]: the Emax in data set [1] is 248%. The Emax in data set [2] worked out at 150%. For the same molecule, in data set [3], the “drug exposure compared with control compound INT-747” value was “higher” and the “peak concentration compared with control compound INT-747” value is recorded as “higher”.
